Measured values taken from PMC6792352, “Limited Chemical Structural Diversity Found to Modulate Thyroid Hormone Receptor in the Tox21 Chemical Library” (Environmental Health Perspectives, 2019).
Counter-ions that a name gives are not always drawn.

Test: in vitro
Settings: rat, gh3-tre-luc cells

SMILES | CC50 at 24 h (AC50 (uM) modified / 1000) [µM] | also measured
CCCCCC(C)OC(=O)COc1ccc(Cl)c2cccnc12 (stereo not shown) [Cloquintocet-mexyl] | 71.4 | 
C[C@]12CC[C@H]3[C@@H](CCC4=CC(=O)CC[C@@H]43)[C@@H]1CC[C@@H]2O [Nandrolone] | > 90 | 
CCCCCCCCCBr [n-Nonyl bromide] |  | CC50 at 24 h (AC50 (uM) modified / 1000, Tox21_110001=Tox21_202864, viability, 1 nM T3 present, 24 h): > 90 µM
CCCC1CCOC(C)S1 (stereo not shown) [2-Methyl-4-propyl-1,3-oxathiane] | > 90 | 
CC(C[N+](C)(C)C)OC(N)=O (stereo not shown) [Bethanechol] | > 50 | 
NCCCNCCCN [Norspermidine] | 57.5 | 
C[N+]1(CCF)[C@@H]2CC[C@H]1CC(OC(=O)C(O)(c1ccccc1)c1ccccc1)C2 (stereo partly shown) [Flutropium bromide] | > 50 | 
CN(C)C(=O)Nc1ccc(Cl)cc1 [Monuron] | > 90 | 
O=C1CCCCCCCCCCCN1 [Azacyclotridecan-2-one] | > 90 | 
C=C(C)[C@H]1CC=C(C)CC1 [D-Limonene] | > 90 | 
CCOc1ccc(NC(N)=O)cc1 [Dulcin] | > 90 | 
CCCC(=O)OCCC(C)C [Isopentyl butyrate] | > 90 | 
CCCC(C(=O)OCCN(CC)CC)(c1ccccc1)c1ccccc1 [Proadifen hydrochloride] | 24.7 | 
COc1cc(C=O)ccc1OC(=O)C(C)C [Vanillin isobutyrate] | > 90 | 
CCCCCCCCCCCCCCCCOS(=O)(=O)O [Sodium hexyldecyl sulfate] | 50.6 | 
CN[C@H]1CC[C@@H](c2ccc(Cl)c(Cl)c2)c2ccc(S(N)(=O)=O)cc21 [UK-373911] | 4.55 | 
CC(=O)NO [Acetohydroxamic acid] | > 50 | 
O=C(Nc1ccc(C(=O)O)c(O)c1)c1ccccc1 [Benzoylpas] | > 50 | 
O=C(Nc1ccccc1)Nc1ccnc(Cl)c1 [Forchlorfenuron] | 64.7 | 
OCCNCCO [Diethanolamine] | > 90 | 
CC1(C)C(=O)N(Br)C(=O)N1Cl [3-Bromo-1-chloro-5,5-dimethylhydantoin] | > 90 | 
C[C@H]1O[C@H](O[C@H]2[C@H](O)[C@@H](O)[C@@H](O)[C@H](O)[C@@H]2O)[C@@H](N)C[C@@H]1NC(=N)C(=O)O [Kasugamycin hydrochloride] | > 90 | 
CN1CCCC(n2nc(Cc3ccc(Cl)cc3)c3ccccc3c2=O)CC1 (stereo not shown) [Azelastine hydrochloride] | 12.6 | 

SMILES | CC50 at 24 h (AC50 (uM) modified / 1000) [µM] | also measured
Cc1ccc(Cl)cc1Cl [2,4-Dichlorotoluene] | > 90 | 
CCCCc1ccc2ccccc2c1S(=O)(=O)O [Butylnaphthalenesulfonic acid sodium salt] | > 90 | 
Cc1ccccc1C(=O)N1CC/C(=N\OS(=O)(=O)O)c2ccc(Cl)cc21 [Alilusem potassium] | > 50 | 
c1ccc2c(c1)Sc1ccccc1N2C[C@@H]1CN2CCC1CC2 [Levomequitazine] | > 50 | 
O=C1C=CCCC1 [2-Cyclohexen-1-one] | > 90 | 
CCCCOC(=O)c1ccccc1N [Butyl anthranilate] |  | CC50 at 24 h (AC50 (uM) modified / 1000, Tox21_110001=Tox21_201173, viability, 1 nM T3 present, 24 h): > 90 µM
O=C(COP(=O)(O)O)[C@@H](O)[C@H](O)[C@H](O)COP(=O)(O)O [D-Fructose 1,6-bisphosphate trisodium] | > 50 | 
COC(=O)C1=C(C)NC(C)=C(C(=O)OC(C)(C)CN(C)CCC(c2ccccc2)c2ccccc2)C1c1cccc([N+](=O)[O-])c1 (stereo not shown) [lercanidipine hydrochloride] | 8.65 | 
CCCOC(=O)C(C)O (stereo not shown) [Propanoic acid,2-hydroxy-,propylester] | > 90 | 
O=C(O)c1ccccn1 [Picolinic acid] | > 50 | 
CCCC(C)C1(CC)C(=O)NC(=S)NC1=O (stereo not shown) [Thiopental sodium] | > 50 | 
COc1cc2[nH]c(C)c(CCN3CCN(c4ccccc4)CC3)c2cc1OC [Oxypertine hydrochloride] | 23.2 | 
Cn1c(CCCC(=O)O)nc2cc(N(CCCl)CCCl)ccc21 [Bendamustine] | > 50 | 
Cc1ccc(S(=O)(=O)NCl)cc1 [Chloramine T hydrate (1:x)] | > 80 | 
CC1(C)S[C@@H]2[C@H](NC(=O)[C@H](N)c3ccc(O)cc3)C(=O)N2[C@H]1C(=O)O [Amoxicillin] | > 50 | 
CC(C)(O)C(=O)O [2-Hydroxyisobutyric acid] | > 90 | 
CCC1NC(=O)c2cc(S(N)(=O)=O)c(Cl)cc2N1 (stereo not shown) [Quinethazone] | > 20 | 
CC[C@H](OC(C)=O)C(C[C@H](C)NC)(c1ccccc1)c1ccccc1 [L-alpha-Acetyl-N-normethadol hydrochloride] |  | CC50 at 24 h (AC50 (uM) modified / 1000, Tox21_110001=Tox21_112831, viability, 1 nM T3 present, 24 h): 17.4 µM
O=C(Nc1ncc([N+](=O)[O-])s1)c1cccs1 [Tenonitrozole] | 30.4 | 
CC/C=C\CCOC(C)OCC (stereo not drawn) [Acetaldehyde ethyl cis-3-hexenyl acetal] | > 70 | 
CCC/C=C/C=C/C(=O)O[C@H]1/C(=C/C(=O)OC)C[C@H]2C[C@H]([C@@H](C)O)OC(=O)C[C@H](O)C[C@@H]3C[C@H](OC(C)=O)C(C)(C)[C@](O)(C[C@@H]4C/C(=C/C(=O)OC)C[C@H](/C=C/C(C)(C)[C@]1(O)O2)O4)O3 [Bryostatin 1] |  | CC50 at 24 h (AC50 (uM) modified / 1000, Tox21_110001=Tox21_112754, viability, 1 nM T3 present, 24 h): 9.94 µM
Brc1ccc(-c2ccccc2)cc1 [4-Bromobiphenyl] | > 90 | 
Cc1ccc(O)c(O)c1 [4-Methylcatechol] | 38.5 | 

SMILES | CC50 at 24 h (AC50 (uM) modified / 1000) [µM] | also measured
CC(C)COC(=O)CC(C(=O)OCC(C)C)S(=O)(=O)O (stereo not shown) [Sodium 1,4-diisobutyl sulfosuccinate] | > 90 | 
CCCCCCCCOC(C)=O [Octyl acetate] | > 90 | 
C(=C/c1ccccc1)/c1ccccc1 [cis-Stilbene] | > 90 | 
Cc1cccc(Oc2ccccc2)c1 [1-Methyl-3-phenoxybenzene] | > 90 | 
O=C(C[S+]([O-])C(c1ccccc1)c1ccccc1)NO (stereo not shown) [Adrafinil] |  | CC50 at 24 h (AC50 (uM) modified / 1000, Tox21_110001=Tox21_112258, viability, 1 nM T3 present, 24 h): > 50 µM
OC[C@@H](O)[C@@H](O[C@@H]1O[C@H](CO)[C@H](O)[C@H](O)[C@H]1O)[C@H](O)[C@@H](O)CO [D-Lactitol monohydrate] | > 90 | 
O=C(O)C(O)[C@H](O)[C@@H](O)[C@H](O)[C@H](O)CO (stereo partly drawn) [D-Gluco-heptonic acid, monosodium salt] | > 90 | 
CCO[Si](CCCN=C=O)(OCC)OCC [(3-Isocyanatopropyl)triethoxysilane] | > 90 | 
CC(Cl)C(C)Cl (stereo not shown) [2,3-Dichlorobutane] |  | CC50 at 24 h (AC50 (uM) modified / 1000, Tox21_110001=Tox21_200667, viability, 1 nM T3 present, 24 h): > 90 µM
CCOC(=O)C(C)(C)Oc1ccc(Cl)cc1 [Clofibrate] | > 90 | 
NS(=O)(=O)c1cc2c(cc1Cl)NC(C(Cl)Cl)NS2(=O)=O (stereo not shown) [Trichlormethiazide] | > 20 | 
COCc1ccc(COC)cc1 [1,4-Bis(methoxymethyl)benzene] | > 90 | 
CO[C@H]1O[C@@H]2O[C@@]3(C)CC[C@H]4[C@H](C)CC[C@@H]([C@H]1C)[C@@]24OO3 [Artemether] | > 50 | 
CCCCCCCC/C=C\CCCCCCCCCCCC(=O)O [(13Z)-Docos-13-enoic acid] | > 90 | 
Cc1ccncc1 [4-Methylpyridine] | > 100 | 
C=CC(=O)OCC(C)OCC(C)OCC(C)OC(=O)C=C (stereo not shown) [Tripropylene glycol diacrylate] | 36.2 | 
CCOP(=S)(OCC)Oc1nc(Cl)c(Cl)cc1Cl [Chlorpyrifos] |  | CC50 at 24 h (AC50 (uM) modified / 1000, Tox21_110001=Tox21_202383, viability, 1 nM T3 present, 24 h): 53.7 µM; CC50 at 24 h (AC50 (uM) modified / 1000, Tox21_110001=Tox21_300148, viability, 1 nM T3 present, 24 h): 81.6 µM
C=CCCCCCCCCCC [1-Dodecene] | > 90 | 
O=P(O)(O)C(Sc1ccc(Cl)cc1)P(=O)(O)O [Tiludronate disodium] | > 50 | 
CCCC[N+]1(C)[C@@H]2CC(OC(=O)[C@H](CO)c3ccccc3)C[C@H]1[C@@H]1O[C@@H]12 (stereo partly shown) [Butylscopolammonium bromide] | > 50 | 
CC[C@]1(O)C[C@H]2CN(CCc3c([nH]c4ccccc34)[C@@](C(=O)OC)(c3cc4c(cc3OC)N(C=O)[C@H]3[C@@](O)(C(=O)OC)[C@H](OC(C)=O)[C@]5(CC)C=CCN6CC[C@]43[C@@H]65)C2)C1 [Vincristine] | 0.12 | 
CC(O)CCl (stereo not shown) [1-Chloro-2-propanol, technical grade (~75% 1-chloro-2-propanol; ~25% 2-chloro-1-propanol)] |  | CC50 at 24 h (AC50 (uM) modified / 1000, Tox21_110001=Tox21_200998, viability, 1 nM T3 present, 24 h): > 90 µM
Cc1cc(=O)c2c(O)c3c(O)cc(=O)c4c3c3c(cc(O)c1c23)C(C)(C)C=4O [Geliomycin] | 0.889 | 
